# Values joined by “and” are separate entries in the source; they are usually repeats but may differ in a detail not shown here. Equal values may be shown once. Toxic doses and inconclusive results are not listed.
# Tested on: DBA/2 mice, P1534 leukemia ip, survival T/C
# Assay: NCI In Vivo Anticancer Drug Screen. Data for tumor model P1534 Leukemia (intraperitoneal) in DBA/2 mice
# Conditions: endpoint: mean survival time, higher = longer survival
# Description: The antitumor activity of compounds was measured in mice bearing transplantable tumors. Survival or tumor size were measured and the results are expressed as the measurement made in the treated group (T) divided by the measurement made in the vehicle treated control group (C). The tumor model used in this assay is P1534 Leukemia (intraperitoneal) in DBA/2 mice
# [1] = dose: 12.5 mg/kg/injection, schedule: Q01DX010 (ip), vehicle: saline
# [2] = dose: 100.0 mg/kg/injection, schedule: Q01DX010 (ip), vehicle: saline
# [3] = dose: 125.0 mg/kg/injection, schedule: Q01DX010 (ip), vehicle: saline
# [4] = dose: 250.0 mg/kg/injection, schedule: Q01DX010 (ip), vehicle: saline
# [5] = dose: 500.0 mg/kg/injection, schedule: Q01DX010 (ip), vehicle: saline
# [6] = dose: 62.5 mg/kg/injection, schedule: Q01DX010 (ip), vehicle: saline
# [7] = dose: 0.5 mg/kg/injection, schedule: Q01DX010 (ip), vehicle: saline
# [8] = dose: 1.0 mg/kg/injection, schedule: Q01DX010 (ip), vehicle: saline
# [9] = dose: 0.25 mg/kg/injection, schedule: Q01DX010 (ip), vehicle: saline
# [10] = dose: 2.0 mg/kg/injection, schedule: Q01DX010 (ip), vehicle: saline
# [11] = dose: 5.0 mg/kg/injection, schedule: Q01DX010 (ip), vehicle: saline
# [12] = dose: 10.0 mg/kg/injection, schedule: Q01DX010 (ip), vehicle: saline
# [13] = dose: 20.0 mg/kg/injection, schedule: Q01DX010 (ip), vehicle: saline
# [14] = dose: 40.0 mg/kg/injection, schedule: Q01DX010 (ip), vehicle: saline
# [15] = dose: 15.6 mg/kg/injection, schedule: Q01DX010 (ip), vehicle: saline
# [16] = dose: 31.3 mg/kg/injection, schedule: Q01DX010 (ip), vehicle: saline
# [17] = dose: 16.0 mg/kg/injection, schedule: Q01DX010 (ip), vehicle: saline
# [18] = dose: 64.0 mg/kg/injection, schedule: Q01DX010 (ip), vehicle: saline
# [19] = dose: 4.0 mg/kg/injection, schedule: Q01DX010 (ip), vehicle: saline
# [20] = dose: 8.0 mg/kg/injection, schedule: Q01DX010 (ip), vehicle: saline
# [21] = dose: 32.0 mg/kg/injection, schedule: Q01DX010 (ip), vehicle: saline
# [22] = dose: 2.5 mg/kg/injection, schedule: Q01DX010 (sc), vehicle: saline
# [23] = dose: 5.0 mg/kg/injection, schedule: Q01DX010 (sc), vehicle: saline
# [24] = dose: 10.0 mg/kg/injection, schedule: Q01DX010 (sc), vehicle: saline
# [25] = dose: 3.13 mg/kg/injection, schedule: Q01DX010 (ip), vehicle: saline
# [26] = dose: 6.25 mg/kg/injection, schedule: Q01DX010 (ip), vehicle: saline
# [27] = dose: 25.0 mg/kg/injection, schedule: Q01DX010 (ip), vehicle: saline
smiles,measurement,setting,value
C[C@@H]1CC[C@@]2(NC1)O[C@H]1C[C@H]3[C@@H]4CC=C5C[C@@H](O)CC[C@]5(C)[C@H]4CC[C@]3(C)[C@H]1[C@@H]2C,T/C,"dose: 5.0 mg/kg/injection, schedule: Q01DX010 (sc), vehicle: steriod suspending solution",100 % of control
same,T/C,"dose: 10.0 mg/kg/injection, schedule: Q01DX010 (sc), vehicle: steriod suspending solution",106 % of control
same,T/C,"dose: 20.0 mg/kg/injection, schedule: Q01DX010 (sc), vehicle: steriod suspending solution",96 % of control
same,T/C,"dose: 40.0 mg/kg/injection, schedule: Q01DX010 (sc), vehicle: steriod suspending solution",93 % of control
CSc1ncnc2nc[nH]c12,T/C,[1],92 % of control
same,T/C,[2],100 % of control
N#CCSc1ncnc2nc[nH]c12,T/C,"dose: 15.0 mg/kg/injection, schedule: Q01DX010 (ip), vehicle: saline",89 % of control
same,T/C,"dose: 30.0 mg/kg/injection, schedule: Q01DX010 (ip), vehicle: saline",100 % of control
same,T/C,"dose: 60.0 mg/kg/injection, schedule: Q01DX010 (ip), vehicle: saline",96 % of control and 100 % of control
c1ccc(CCSc2ncnc3nc[nH]c23)cc1,T/C,[3],100 % of control
same,T/C,[4],100 % of control
same,T/C,[5],104 % of control
CC(C)(C)CC(C)(C)c1ccc(O)cc1,T/C,[6],100 % of control
same,T/C,[3],100 % of control
same,T/C,[4],107 % of control
same,T/C,[5],111 % of control
C[C@]12CC[C@H](OC3OC(CO)C(O)C(O)C3O)C[C@H]1CC[C@@H]1[C@@H]2CC[C@]2(C)[C@@H](C3=CCOC3=O)CC[C@]12O (some centres undefined),T/C,[7],100 % of control
same,T/C,[8],91 % of control
CO[C@@]12[C@H](COC(N)=O)C3=C(C(=O)C(C)=C(N)C3=O)N1C[C@@H]1N[C@@H]12,T/C,[9],92 % of control
same,T/C,[7],111 % of control
same,T/C,[8],103 % of control
same,T/C,[10],92 % of control
Cn1c(N)nc2nc[nH]c2c1=S,T/C,[11],100 % of control
same,T/C,[12],100 % of control
same,T/C,[13],100 % of control
same,T/C,[14],100 % of control
OC(CBr)C(O)C(O)C(O)CBr (centres undefined),T/C,[2],100 % of control
CN(C)Cc1c[nH]c2ccccc12,T/C,[15],100 % of control
same,T/C,[16],100 % of control
NCCCCCCNC(=O)CCC(=O)NCCCCCCN,T/C,[17],95 % of control
same,T/C,[18],91 % of control
CSc1ncnc2c1ncn2C1OC(CO)C(O)C1O (centres undefined),T/C,[19],100 % of control
same,T/C,[20],100 % of control
same,T/C,[17],96 % of control and 100 % of control
CCOC(=O)NP(=O)(N1CC1(C)C)N1CC1(C)C (centres undefined),T/C,[16],107 % of control
same,T/C,[6],92 % of control
same,T/C,[3],103 % of control
CN(Cc1cnc2nc(N)nc(N)c2n1)c1c(Cl)cc(C(=O)NC(CCC(=O)O)C(=O)O)cc1Cl (centres undefined),T/C,[13],120 % of control
Nc1nc(SCc2ccccc2)c2[nH]cnc2n1,T/C,[20],92 % of control and 100 % of control
same,T/C,[17],100 % of control
same,T/C,[16],88 % of control
same,T/C,[21],100 % of control and 103 % of control
CC1CCOS(=O)O1 (centres undefined),T/C,[12],92 % of control
same,T/C,[13],92 % of control
NCCCCCCNC(=O)CCCCC(=O)NCCCCCCN,T/C,[20],100 % of control
same,T/C,[17],100 % of control
same,T/C,[21],95 % of control
same,T/C,[18],95 % of control
CO[C@H]1C[C@H](O[C@H]2CC[C@]3(C=O)[C@H]4CC[C@]5(C)[C@@H](C6=CC(=O)OC6)CC[C@]5(O)[C@@H]4CC[C@]3(O)C2)O[C@H](C)[C@H]1O,T/C,"dose: 1.25 mg/kg/injection, schedule: Q01DX010 (sc), vehicle: saline",92 % of control
same,T/C,[22],103 % of control
same,T/C,[23],92 % of control
same,T/C,[24],89 % of control
N=C(N)c1ccc(Nc2ccc(C(=N)N)cc2)cc1,T/C,"dose: 6.0 mg/kg/injection, schedule: Q01DX010 (ip), vehicle: saline",96 % of control
same,T/C,"dose: 12.0 mg/kg/injection, schedule: Q01DX010 (ip), vehicle: saline",89 % of control and 100 % of control
C/C=C1\CN(C=O)C2CC3c4ccccc4NC3C(=O)CC1C2C(=O)OC (centres undefined),T/C,[25],100 % of control
same,T/C,[26],100 % of control
same,T/C,[1],100 % of control
same,T/C,[27],100 % of control
Nc1nc(=S)c2ncn(C3OC(CO)C(O)C3O)c2[nH]1 (centres undefined),T/C,[9],110 % of control
same,T/C,[8],96 % of control
same,T/C,[10],89 % of control
CC(=O)[C@H]1CC[C@H]2[C@@H]3C[C@H](C)C4=CC(=O)CC[C@]4(C)[C@H]3C(=O)C[C@]12C,T/C,"dose: 6.25 mg/kg/injection, schedule: Q01DX010 (sc), vehicle: steriod suspending solution",100 % of control
same,T/C,"dose: 12.5 mg/kg/injection, schedule: Q01DX010 (sc), vehicle: steriod suspending solution",107 % of control
same,T/C,"dose: 25.0 mg/kg/injection, schedule: Q01DX010 (sc), vehicle: steriod suspending solution",103 % of control
same,T/C,"dose: 50.0 mg/kg/injection, schedule: Q01DX010 (sc), vehicle: steriod suspending solution",107 % of control
C[C@@H](N)[C@@H](O)c1ccccc1,T/C,[25],96 % of control
C1CCNC1,T/C,"dose: 0.19 mg/kg/injection, schedule: Q01DX010 (ip), vehicle: saline",93 % of control
same,T/C,"dose: 0.39 mg/kg/injection, schedule: Q01DX010 (ip), vehicle: saline",86 % of control
same,T/C,"dose: 1.56 mg/kg/injection, schedule: Q01DX010 (ip), vehicle: saline",96 % of control
Nc1ncccc1C(=O)O,T/C,[6],89 % of control
Cn1c(O)c(N=NC(N)=S)c2ccccc21,T/C,[16],100 % of control
same,T/C,[6],100 % of control
same,T/C,[3],103 % of control
COC(=O)c1[nH]c(=O)[nH]c(=O)c1F,T/C,[8],103 % of control
same,T/C,[19],93 % of control
Cn1cnc([N+](=O)[O-])c1Sc1ncnc2nc[nH]c12,T/C,[1],96 % of control
CN(C)c1ccc(/C=C/c2ccnc3ccccc23)cc1,T/C,[11],100 % of control and 108 % of control
same,T/C,[12],100 % of control
same,T/C,[13],100 % of control and 108 % of control
same,T/C,[14],100 % of control
CCC(=O)NC1=C(N2CC2)C(=O)C(NC(=O)CC)=C(N2CC2)C1=O,T/C,"dose: 0.13 mg/kg/injection, schedule: Q01DX010 (ip), vehicle: saline",108 % of control
same,T/C,[9],108 % of control
same,T/C,[7],100 % of control
same,T/C,[8],112 % of control
CN[C@H]1CCc2cc(OC)c(OC)c(OC)c2-c2ccc(OC)c(=O)cc21,T/C,"dose: 0.63 mg/kg/injection, schedule: Q01DX010 (ip), vehicle: other",111 % of control and 115 % of control
same,T/C,"dose: 1.25 mg/kg/injection, schedule: Q01DX010 (ip), vehicle: other",100 % of control and 103 % of control
S=P(N1CC1)(N1CC1)N1CC1,T/C,[9],91 % of control and 99 % of control
same,T/C,[7],94 % of control and 100 % of control
same,T/C,[8],95 % of control
same,T/C,[10],87 % of control and 89 % of control
CCNc1nncs1,T/C,[15],100 % of control
same,T/C,[16],100 % of control
C[C@H]1C(=O)O[C@@H]2CCN3CC=C(COC(=O)[C@](C)(O)[C@@]1(C)O)[C@H]23,T/C,[25],100 % of control and 117 % of control
same,T/C,[26],96 % of control and 107 % of control
same,T/C,[1],96 % of control and 107 % of control
same,T/C,[27],100 % of control
COC12C(COC(N)=O)C3=C(C(=O)C(C)=C(N)C3=O)N1CC1C2N1C (centres undefined),T/C,[22],108 % of control
same,T/C,[23],108 % of control
same,T/C,[24],100 % of control

# Reference: PubChem BioAssay AID314 (DTP/NCI, 2004)
